Data on one substance can be found in patent US20240285670A1, “THERAPEUTIC TREATMENT OF TUMORS BY BLOCKING THE HEME SYNTHESIS-EXPORT AXIS” (Università degli Studi di Torino, priority 2021, published 2024).

Assay type in all cases: cell-based, human
The subject of data set [1] is Caco2 cells. Put plainly: Mitochondrial ATP levels in Caco2 cells. Conditions: FLVCR1a-silenced vs scramble shRNA Caco2 cells. The source says: (A, C, E) Activities of the mitochondrial electron transport chain complexes I-IV. FLVCR1a-silenced Caco2 (A), SKCO1 (C) or C80 cells (E) are compared to cells expressing a scramble shRNA. Results were expressed as nmol NAD^+/min/mg mitochondrial protein for complex I, nmol reduced cytochrome c/min/mg mitochondrial protein for complexes II-III, nmol oxidized cytochrome c/min/mg mitochondrial protein for complex IV. Data represent mean±SEM, n=3. For statistical analyses, an unpaired Student's t-test was used; *=p<0.05, **=p<0.01. (B, D, F) Mitochondrial ATP levels measured by a bioluminescent assay kit. FLVCR1a-silenced Caco2 (B), SKCO1 (D) or C80 cells (F) are compared to cells expressing a scramble shRNA. Results are expressed as nmol/mg mitochondrial proteins. […] Results were expressed as nmol NAD^+/min/mg mitochondrial protein for complex I, nmol reduced cytochrome c/min/mg mitochondrial protein for complexes II-III, nmol oxidized cytochrome c/min/mg mitochondrial protein for complex IV. […] (H) Mitochondrial ATP levels measured by a bioluminescent assay kit in Caco2 cells overexpressing FLVCR1a (indicated as FLVCR1a+) compared to cells stably transduced with an empty vector. Results are expressed as nmol/mg mitochondrial proteins. […]
ATP levels in mitochondria extracts were assessed by the ATP Bioluminescent Assay Kit (Sigma-Aldrich, St. Louis, MO USA, catalog n° FLAA). […]

Data set [2] deals with Caco2 cells. Kind of data set: Proliferation of Caco2 cells (crystal violet staining, cell viability). The settings on record: FLVCR1a-silenced vs scramble shRNA Caco2 cells. The text has this: (A) Proliferation of Caco2 cells assessed by crystal violet staining at the indicated days; bar=1000 μm. […] Staining quantification is reported in the bar graph as percentage of crystal violet stained area. Data represent mean±SEM, n=4. For statistical analyses, a two-way analysis of variance was used, followed by the Bonferroni correction for multiple group comparisons; *=p<0.05, ***=p<0.001. (B) Caco2 cells viability the day of plating (day 0) and three days after plaiting (day 3). The measure is considered a readout of cell proliferation. […] Data represent mean±SEM, n=3 wells. For statistical analyses, a two-way analysis of variance was used, followed by the Bonferroni correction for multiple group comparisons; *=p<0.05, **=p<0.01. (C, D, E) Representative flow cytometric analyses of apoptosis in synchronized Caco2 (C), SKCO1 (D) and C80 (E) cells. […]
To assess cell viability, the CellTiter-Fluor Cell Viability Assay (Promega, Madison, WI USA, catalog n°G6080) was used. […] The detection of cell viability at different consecutive time points was regarded as a readout of cell proliferation.
For crystal violet staining, 1*10^4 Caco2 cells were seeded in 6-well plates. […] Stained area was assessed by analyses of four representative photos per day for each triplicate using Fiji open source software (Schindelin et al., 2012) (http://fiji.sc/ RRID:SCR_002285).

The test system of the next data set is SKCO1 cells. Kind of data set: Flow cytometric analysis of apoptosis in SKCO1 cells. Conditions: FLVCR1a-silenced vs scramble shRNA, synchronized SKCO1 cells. The source says:
(A) Proliferation of Caco2 cells assessed by crystal violet staining at the indicated days; bar=1000 μm. […] Staining quantification is reported in the bar graph as percentage of crystal violet stained area. Data represent mean±SEM, n=4. For statistical analyses, a two-way analysis of variance was used, followed by the Bonferroni correction for multiple group comparisons; *=p<0.05, ***=p<0.001. (B) Caco2 cells viability the day of plating (day 0) and three days after plaiting (day 3). The measure is considered a readout of cell proliferation. […] Data represent mean±SEM, n=3 wells. For statistical analyses, a two-way analysis of variance was used, followed by the Bonferroni correction for multiple group comparisons; *=p<0.05, **=p<0.01. (C, D, E) Representative flow cytometric analyses of apoptosis in synchronized Caco2 (C), SKCO1 (D) and C80 (E) cells. […] Data represent mean±SEM, n=4 wells pooled from two independent experiments. For statistical analyses, an unpaired Student's t-test was used; *=p<0.05, **=p<0.01. […]
Stained cells were analyzed using a FACSCanto II cytofluorimeter and processed with BD FACSDIVA Software v8.1 (BD Biosciences, Milan, IT; http://www.bdbiosciences.com/instruments/software/facsdiva/index.jsp/ RRID:SCR_001456), acquiring at least 10,000 events per sample or 25,000 cells per sample for cell cycle experiments.
On the technique in general: A flow cytometer gives signals particle by particle.

Regarding “FLVCR1a shRNA: shRNA specifically down-regulating FLVCR1a without targeting FLVCR1b; pLKO.1 lentiviral clone TRCN0000059599, antisense SEQ ID No.: 2 (antisense TTGCTAATGATGCTGTACTGG; sense CCAGTACAGCATCATTAGCAA)”, the “ATP levels in mitochondria” value in the data set with Caco2 cells [1] is reported as “significantly higher ATP levels in mitochondria”. The cell proliferation result with Caco2 cells [2] was “proliferated more slowly”. In addition, the apoptosis result in the data set on SKCO1 cells is “increased apoptosis”.
